Patent US8524909B2, “Tetrahydro-pyran derivatives” (Hoffmann-La Roche Inc., priority 2010, dated 2013)
pIC50: −log10 of the molar value.

Biological target: mGlyT-1b (Mus musculus (Mouse), UniProt P28571)
Experiment: Glycine Uptake Inhibition Assay (mGlyT-1b)
Type: cell-based
Details: [3H]-glycine uptake in Flp-in-CHO cells stably transfected with mGlyT1b cDNA; 20 min preincubation at 22° C.
Description: DMEM complete medium: Nutrient mixture F-12 (Gibco Life-technologies), fetal bovine serum (FBS) 5%, (Gibco life technologies), Penicillin/Streptomycin 1% (Gibco life technologies), Hygromycin 0.6 mg/ml (Gibco life technologies), Glutamine 1 mM Gibco life technologies)
Uptake buffer (UB): 150 mM NaCl, 10 mM Hepes-Tris, pH 7.4, 1 mM CaCl2, 2.5 mM KCl, 2.5 mM MgSO4, 10 mM (+) D-glucose.
Flp-in™-CHO (Invitrogen Cat no R758-07) cells stably transfected with mGlyT1b cDNA.
Glycine Uptake Inhibition Assay (mGlyT-1b)
On day 1 mammalian cells, (Flp-in™-CHO), transfected with mGlyT-1b cDNA, were plated at the density of 40,000 cells/well in complete F-12 medium, without hygromycin in 96-well culture plates. On day 2, the medium was aspirated and the cells were washed twice with uptake buffer (UB). The cells were then incubated for 20 min at 22° C. with either (i) no potential competitor, (ii) 10 mM non-radioactive glycine, (iii) a concentration of a potential inhibitor. A range of concentrations of the potential inhibitor was used to generate data for calculating the concentration of inhibitor resulting in 50% of the effect (e.g. IC50, the concentration of the competitor inhibiting glycine uptake of 50%). A solution was then immediately added containing [^3H]-glycine 60 nM (11-16 Ci/mmol) and 25 μM non-radioactive glycine. The plates were incubated with gentle shaking and the reaction was stopped by aspiration of the mixture and washing (three times) with ice-cold UB. The cells were lysed with scintillation liquid, shaken 3 hours and the radioactivity in the cells was counted using a scintillation counter.

Chain of mGlyT-1b (P28571 other isoform, or with tags, fused parts or gaps isoform P28571-2): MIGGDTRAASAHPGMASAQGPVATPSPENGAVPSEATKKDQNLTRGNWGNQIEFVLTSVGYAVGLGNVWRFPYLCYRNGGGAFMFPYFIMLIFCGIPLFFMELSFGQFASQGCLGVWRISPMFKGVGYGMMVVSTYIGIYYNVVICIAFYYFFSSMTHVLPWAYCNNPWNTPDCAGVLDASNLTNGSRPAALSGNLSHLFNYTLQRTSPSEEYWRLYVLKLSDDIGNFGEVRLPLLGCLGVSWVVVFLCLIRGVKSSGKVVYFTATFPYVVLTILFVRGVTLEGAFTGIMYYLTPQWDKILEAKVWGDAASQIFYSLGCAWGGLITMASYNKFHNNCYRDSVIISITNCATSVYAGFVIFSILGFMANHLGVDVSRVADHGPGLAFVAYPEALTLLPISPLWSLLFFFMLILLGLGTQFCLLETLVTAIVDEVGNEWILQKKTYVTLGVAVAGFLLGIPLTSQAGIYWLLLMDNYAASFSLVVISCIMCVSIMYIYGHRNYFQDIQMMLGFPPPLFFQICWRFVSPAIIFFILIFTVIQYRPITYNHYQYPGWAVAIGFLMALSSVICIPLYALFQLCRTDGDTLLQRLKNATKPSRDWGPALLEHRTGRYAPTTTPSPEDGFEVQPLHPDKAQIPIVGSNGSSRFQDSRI

`COc1cc(C(F)(F)F)cc(C2CC2)c1C(=O)N[C@@H]1COCC[C@H]1N1CCCC1` [Example 58] was tested, and the pIC50 was 8.12.

For `COc1cc(C(F)(F)F)cc(SC)c1C(=O)N[C@H]1COCC[C@@H]1N1CCCC1` (single isomer, unassigned) [Example 6, (−)-2-Methoxy-6-methylsulfanyl-N-(4-pyrrolidin-1-yl-tetrahydro-pyran-3-yl)-4-trifluoromethyl-benzamide], the pIC50 was 7.55.

With `O=C(N[C@@H]1COCC[C@H]1NC1CCCC1)c1ccc(C(F)(F)F)cc1C1CC1` (racemic) [Example 12, N-((3SR,4RS)-4-Cyclopentylamino-tetrahydro-pyran-3-yl)-2-cyclopropyl-4-trifluoromethyl-benzamide] the pIC50 was 7.12.

For `Cc1cc(C(F)(F)F)cc(C)c1C(=O)N[C@H]1COCC[C@@H]1N1CCCC1` [Example 51], the pIC50 was 7.60.

Work on `Cc1cc(C(F)(F)F)cc(C)c1C(=O)N[C@@H]1COCC[C@H]1N1CCCC1` [Example 52] yielded a pIC50 of 7.47.

For `COc1cc(C(F)(F)F)cc(SC)c1C(=O)N[C@@H]1COCC[C@H]1NC1(C)CCCC1` (racemic) [Example 28, 2-Methoxy-N-[(3SR,4RS)-4-(1-methyl-cyclo-pentylamino)-tetrahydro-pyran-3-yl]-6-methyl-sulfanyl-4-trifluoromethyl-benzamide], the pIC50 was 6.84.

Work on `CC1(N[C@@H]2CCOC[C@H]2NC(=O)c2ccc(C(F)(F)F)cc2C2CC2)CCCC1` (racemic) [Example 29, 2-Cyclopropyl-N-[(3SR,4RS)-4-(1-methyl-cyclo-pentyl-amino)tetra-hydro-pyran-3-yl]-4-trifluoromethyl-benzamide] yielded a pIC50 of 6.63.

With `O=C(N[C@H]1COCC[C@@H]1N1CCCC1)c1c(C2CC2)cc(C(F)(F)F)cc1C(F)(F)F` [Example 47, (+)-2-Cyclopropyl-N-(4-pyrrolidin-1-yl-tetrahydro-pyran-3-yl)-4,6-bis-trifluoromethyl-benzamide] the pIC50 was 7.80.

Compound `O=C(N[C@@H]1COCC[C@H]1N1CCCC1)c1c(C2CC2)cc(C(F)(F)F)cc1C(F)(F)F` [Example 48, (−)-2-Cyclopropyl-N-(4-pyrrolidin-1-yl-tetrahydro-pyran-3-yl)-4,6-bis-trifluoromethyl-benzamide] has a pIC50 of 7.70.

Work on `CSc1cc(C(F)(F)F)cc(C(F)(F)F)c1C(=O)N[C@@H]1COCC[C@H]1N1CCCC1` (racemic) [Example 9, 2-Methylsulfanyl-N-((3SR,4RS)-4-pyrrolidin-1-yl-tetrahydro-pyran-3-yl)-4,6-bis-trifluoromethyl-benzamide] yielded a pIC50 of 7.78.

With `O=C(N[C@@H]1COCC[C@H]1NC1CC1)c1ccc(C(F)(F)F)cc1C1CC1` (racemic) [Example 20, 2-Cyclopropyl-N-((3SR,4RS)-4-cyclopropylamino-tetrahydro-pyran-3-yl)-4-trifluoromethyl-benzamide] the pIC50 was 6.71.

`COc1cc(C(F)(F)F)cc(SC)c1C(=O)N[C@H]1COCC[C@H]1N1CCCC1` (racemic) [Example 1, 2-Methoxy-6-methylsulfanyl-N-((3RS,4RS)-4-pyrrolidin-1-yl-tetrahydro-pyran-3-yl)-4-trifluoromethyl-benzamide] showed a pIC50 of 6.58.

For `O=C(N[C@@H]1COCC[C@H]1NC1CCCC1)c1ccc(C(F)(F)F)cc1C1CC1` [Example 44, (−)-N-(trans-4-Cyclopentylamino-tetrahydro-pyran-3-yl)-2-cyclopropyl-4-trifluoromethyl-benzamide], the pIC50 was 6.52.

With `O=C(N[C@@H]1COCC[C@H]1N1CCCC1)c1c(C2CC2)cc(C(F)(F)F)cc1C(F)(F)F` (racemic) [Example 15, 2-Cyclopropyl-N-((3SR,4RS)-4-pyrrolidin-1-yl-tetrahydro-pyran-3-yl)-4,6-bis-trifluoromethyl-benzamide] the pIC50 was 7.88.

`O=C(N[C@@H]1COCC[C@H]1NC1CCC1)c1ccc(C(F)(F)F)cc1C1CC1` (racemic) [Example 32, N-((3SR,4RS)-4-Cyclobutylamino-tetrahydro-pyran-3-yl)-2-cyclo-propyl-4-trifluoromethyl-benzamide] was tested, and the pIC50 was 6.92.

In the case of `COc1cc(C(F)(F)F)cc(C2CC2)c1C(=O)N[C@@H]1COCC[C@H]1N1CCCC1` (racemic) [Example 27, Cyclopropyl-6-methoxy-N-((3SR,4RS) 4 pyrrolidin-1-yl-tetrahydro-pyran-3-yl)-4-trifluoro-methyl-benzamide], the pIC50 was 7.83.

Work on `COc1cc(C(F)(F)F)cc(SC)c1C(=O)N[C@H]1COCC[C@@H]1N1CCCC1` (single isomer, unassigned) [Example 5, (+)-2-Methoxy-6-methylsulfanyl-N-(4-pyrrolidin-1-yl-tetrahydro-pyran-3-yl)-4-trifluoromethyl-benzamide] yielded a pIC50 of 6.93.

With `Cc1cc(C(F)(F)F)cc(C)c1C(=O)N[C@@H]1COCC[C@H]1N1CCCC1` (racemic) [Example 21, 2,6-Dimethyl-N-((3SR,4RS)-4-pyrrolidin-1-yl-tetrahydro-pyran-3-yl)-4-trifluoro-methylbenzamide] the pIC50 was 7.34.

`COc1cc(C(F)(F)F)cc(SC)c1C(=O)N[C@H]1COCC[C@@H]1N1CCC(O)C1` (mixture of isomers) [Example 7, N-[(3RS,4SR)-4-(3-Hydroxy-pyrrolidin-1-yl)-tetrahydro-pyran-3-yl]-2-methoxy-6-methylsulfanyl-4-trifluoromethyl-benzamide] showed a pIC50 of 6.81.

`O=C(N[C@H]1COCC[C@@H]1NC1CCCC1)c1ccc(C(F)(F)F)cc1C1CC1` (stereo in doubt) [Example 43, (+)-N-(trans-4-Cyclopentylamino-tetrahydro-pyran-3-yl)-2-cyclopropyl-4-trifluoromethyl-benzamide] gave a pIC50 of 7.10.

`Cc1cc(C(F)(F)F)cc(C(F)(F)F)c1C(=O)N[C@@H]1COCC[C@H]1N1CCCC1` [Example 40, (−)-2-Methyl-N-trans-(4-pyrrolidin-1-yl-tetrahydro-pyran-3-yl)-4,6-bis-trifluoromethyl-benzamide] was tested, and the pIC50 was 7.02.

Work on `COc1cc(C(F)(F)F)cc(SC)c1C(=O)N[C@@H]1COCC[C@H]1NC1CCCC1` (racemic) [Example 11, N-((3SR,4RS)-4-Cyclopentylamino-tetrahydro-pyran-3-yl)-2-methoxy-6-methylsulfanyl-4-trifluoromethyl-benzamide] yielded a pIC50 of 6.90.

`COc1cc(C(F)(F)F)cc(SC)c1C(=O)N[C@H]1COCC[C@H]1NC1CCC1` (racemic) [Example 3, N-((3RS,4RS)-4-Cyclobutylamino-tetrahydro-pyran-3-yl)-2-methoxy-6-methylsulfanyl-4-trifluoromethyl-benzamide] gave a pIC50 of 6.30.

In the case of `O=C(N[C@@H]1COCC[C@H]1NC1CCOCC1)c1ccc(C(F)(F)F)cc1C1CC1` (racemic) [Example 17, 2-Cyclopropyl-N-[(3SR,4RS)-4-(tetrahydro-pyran-4-ylamino)-tetrahydro-pyran-3-yl]-4-trifluoro-methylbenzamide], the pIC50 was 6.04.

`COc1cc(C(F)(F)F)cc(SC)c1C(=O)N[C@H]1CCOC[C@H]1N1CCCC1` [Example 64, (−)-2-Methoxy-6-methylsulfanyl-N-(3-pyrrolidin-1-yl-tetrahydro-pyran-4-yl)-4-trifluoro-methyl-benzamide] showed a pIC50 of 6.72.

In the case of `CCc1cc(C(F)(F)F)cc(OC)c1C(=O)N[C@H]1COCC[C@@H]1N1CCCC1` [Example 55], the pIC50 was 7.32.

Work on `COc1cc(C(F)(F)F)cc(SC)c1C(=O)N[C@H]1COCC[C@@H]1NC1CCC1` (racemic) [Example 4, N-((3RS,4SR)-4-Cyclobutylamino-tetrahydro-pyran-3-yl)-2-methoxy-6-methylsulfanyl-4-trifluoromethyl-benzamide] yielded a pIC50 of 6.47.

`COc1cc(C(F)(F)F)cc(SC)c1C(=O)N[C@@H]1COCC[C@H]1NC1CCCC1` [Example 46, (−)-N-(4-Cyclopentylamino-tetrahydro-pyran-3-yl)-2-methoxy-6-methylsulfanyl-4-trifluoromethyl-benzamide] was tested, and the pIC50 was 6.80.

`CCc1cc(C(F)(F)F)cc(CC)c1C(=O)N[C@@H]1COCC[C@H]1N1CCCC1` (racemic) [Example 23, 2,6-Diethyl-N-((3SR,4RS)-4-pyrrolidin-1-yl-tetrahydro-pyran-3-yl)-4-trifluoro-methylbenzamide] showed a pIC50 of 7.23.

`COc1cc(C(F)(F)F)cc(SC)c1C(=O)N[C@H]1COCC[C@@H]1NC1CCCC1` [Example 45, (+)-N-(4-Cyclopentylamino-tetrahydro-pyran-3-yl)-2-methoxy-6-methylsulfanyl-4-trifluoromethyl-benzamide] showed a pIC50 of 6.95.

In the case of `COc1cc(C(F)(F)F)cc(SC)c1C(=O)N[C@H]1COCC[C@@H]1N1CCCC1` (racemic) [Example 2, 2-Methoxy-6-methylsulfanyl-N-((3RS,4SR)-4-pyrrolidin-1-yl-tetrahydro-pyran-3-yl)-4-trifluoromethyl-benzamide], the pIC50 was 7.18.

In the case of `O=C(N[C@@H]1COCC[C@H]1N1CCCC1)c1ccc(C(F)(F)F)cc1C1CC1` (racemic) [Example 8, 2-Cyclopropyl-N-((3SR,4RS)-4-pyrrolidin-1-yl-tetrahydro-pyran-3-yl)-4-trifluoromethyl-benzamide], the pIC50 was 7.44.
